Data reported in patent US20240317748A1, “CARBONYL SUBSTITUTED DIAZASPIRO COMPOUNDS AND ITS USE” (BIONOVA PHARMACEUTICALS (SHANGHAI) LIMITED, priority 2021, published 2024).

How the values were obtained:
Menin-MLL1 = target: T1, Menin-MLL1 (Homo sapiens, UniProt O00255); assay: Menin-MLL1 inhibition assay (fluorescence polarization, Menin protein + FAM-MLL peptide); assay type: binding; settings: Menin (2-610) isoform 2, FAM-labelled MLL peptide, mP readout; read-out: Biochemical assay Menin-MLL1 IC50
T1 construct: Menin (2-610) isform2; purchased ChemPartner 2020111101
T1 sequence (O00255 2-610): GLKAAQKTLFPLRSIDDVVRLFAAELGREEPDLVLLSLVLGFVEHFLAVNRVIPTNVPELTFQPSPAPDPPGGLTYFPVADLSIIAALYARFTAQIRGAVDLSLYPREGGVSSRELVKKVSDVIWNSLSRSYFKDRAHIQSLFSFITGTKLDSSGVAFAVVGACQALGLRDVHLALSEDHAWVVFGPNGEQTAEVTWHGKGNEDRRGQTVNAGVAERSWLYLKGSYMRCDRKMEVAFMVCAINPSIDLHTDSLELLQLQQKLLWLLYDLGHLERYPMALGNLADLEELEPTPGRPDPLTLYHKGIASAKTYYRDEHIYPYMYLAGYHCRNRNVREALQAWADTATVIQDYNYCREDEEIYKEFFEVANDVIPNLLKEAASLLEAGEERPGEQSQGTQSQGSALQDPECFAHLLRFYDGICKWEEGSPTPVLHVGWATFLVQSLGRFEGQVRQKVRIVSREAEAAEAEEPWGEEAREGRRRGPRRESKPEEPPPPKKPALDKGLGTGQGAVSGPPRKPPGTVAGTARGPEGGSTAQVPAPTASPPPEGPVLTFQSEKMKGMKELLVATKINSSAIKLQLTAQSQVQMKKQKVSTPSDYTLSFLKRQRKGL
Experimental: 1× assay bu9ffer (Tris 7.5 50 mM, NaCl 50 mM, DTT 1 mM, Tween-20 0.01%) was prepared and test compounds solution (10 mM in DMSO, Sigma, Cat. No. 34869) were transferred to assay plate (384-well plate, Perkin Elmer, Cat. No. 6007279) by Echo. The final fraction of DMSO is 1%. 20 nM of Menin protein (Menin (2-610) isform2, ChemPartner, Cat. No. 2020111101) in 1× assay buffer was added to prepare 2× enzyme solution. Then 10 nM of MLL-peptide (Ac-SRWRFPARPGTGRR-Ahx-Ahx-K(FAM)-NH2, GL Biochem (Shanghai)), Cat. No. 833831/202009220104) in 1× assay buffer was added to prepare 2× substrate solution. 10 μL of 2× enzyme solution was transferred to assay plate or 10 μL of 1× assay buffer for low control group. 10 μL of 2× substrate solution was added to each well to start reaction. mP data on Envision (Ex480/Em535(s), Em535(p)) was collected.
Compound potencies were determined by first calculating % inhibition at each compound concentration according to equation 1:
Inhibition %=(Max−Signal)/(Max−Min)*100 (Equation 1)
Y=Bottom+(Top-Bottom)/(1+(IC50/X)[…]), where Y is % inhibition and X is compound concentration (Equation 2)

MV-4-11 cells = assay: Cell proliferation assay (CellTiter-Glo), MV-4-11; assay type: cell-based, human; settings: Homo sapiens, MV4-11, 96 h; MV-4-11 (MLL-AF4), 4 days incubation; read-out: Cell antiproliferation assay MV-4-11 IC50
Experimental: The antiproliferative activity of test compounds was assessed in human leukemia cell lines. The cell line MV4-11, MOLM13 and OCI-AML3, which expresses the MLL fusion protein MLL-AF4, MLL-AF9 and carry the NPM1c gene mutation, respectively, were tested. HL-60 was used as a control cell line containing two MLL wildtype alleles in order to exclude compounds that display general cytotoxic effect. MV4-11 cells were cultured in IMDM supplemented with 10% FBS, MOLM13 and OCI-AML3 cells were cultured in RPMI1640 supplemented with 20% FBS, and HL-60 cells were cultured in IMDM supplemented with 20% FBS. Corresponding cells (MV4-11, MOLM13, OCI-AML3 or HL-60 cell line) were seeded in 100 uL medium per well in 96-well plate (white wall with clear bottom, tissue culture treated, Corning, Cat. No. CLS3903; Lot.No. 30419025). Plates were placed in the CO2 incubator overnight. Compounds solution (2 mM starting, 4-fold serial dilution) were prepared and added to the wells containing 100 μL of the culture medium with HPD300 according to the plate map and centrifuge at 1000 rpm for 1 minutes (200-fold dilution totally). MV4-11, MOLM13, OCI-AML3 and HL-60 cells were incubated with the compounds for 4, 12, 5 and 4 days, respectively, under 5% CO2 at 37° C., respectively. 100 μL of CellTiter-Glo reagent (Promega, Cat. No. G7573, Lot. No. 0000416710) was added to the assay plate by Multidrop Combi instrument, contents were mixed for 10 minutes on an orbital shaker to induce cell lysis. After incubation at room temperature for 10 mins, clear bottom with white back seal was pasted and luminescence with Envision was read.

Row | IC50 (Menin-MLL1) | IC50 (MV-4-11 cells) | SMILES
1 | 5.4 nM | 46.4 nM | CCN(C(=O)c1cc(F)ccc1Oc1nncnc1N1CC2(CCN(C(=O)[C@H]3NCC[C@@H]3C(F)F)CC2)C1)C(C)C [Example 99a, 2-((5-(7-((2S,3S)-3-(difluoromethyl)pyrrolidine-2-carbonyl)-2,7-diazaspiro[3.5]nonan-2-yl)-1,2,4-triazin-6-yl)oxy)-N-ethyl-5-fluoro-N-isopropylbenzamide]
2 | 4 nM | 17.1 nM | CC(C)N(CC(F)F)C(=O)c1cc(F)ccc1Oc1nncnc1N1CC2(CCN(C(=O)[C@H]3NC[C@@H]4CCC[C@@H]43)CC2)C1 [Example 105]
3 | 4.5 nM | 19.3 nM | CCN(C(=O)c1cc(F)ccc1Oc1cncnc1N1CC2(CCN(C(=O)[C@H]3NCc4ccccc43)CC2)C1)C(C)C [Example 33]
4 | 2.5 nM | 5.5 nM | CC1(C)[C@@H]2[C@@H](C(=O)N3CCC4(CC3)CN(c3ncnnc3Oc3ccc(F)cc3-c3ccc(C#N)nc3C3CC3)C4)NC[C@@H]21 [Example 95]
5 | 7.7 nM | 494 nM | CCN(C(=O)c1cc(F)ccc1Oc1cncnc1N1CCC2(CC1)CN(C(=O)[C@@H]1C[C@@H](F)CN1)C2)C(C)C [Example 46]
6 | 10.9 nM | 786 nM | C[C@H]1COCCN1C(=O)c1cc(F)ccc1Oc1cncnc1N1CC2(CCN(C(=O)[C@@H]3C[C@@H](F)CN3)CC2)C1 [Example 53]
7 | 4 nM | 5.6 nM | CO[C@H]1CCN[C@@H]1C(=O)N1CCC2(CC1)CN(c1ncnnc1Oc1ccc(F)cc1-c1ccc(C#N)cc1C1CC1)C2 [Example 96]
8 | 2.3 nM | 29.5 nM | CCN(C(=O)c1cc(F)ccc1Oc1nncnc1N1CC2(CCN(C(=O)[C@H]3NC[C@@H]4CC(F)(F)C[C@@H]43)CC2)C1)C(C)C (single isomer, unassigned) [Example 98d]
9 | 24.8 nM | 457 nM | CCN(C(=O)c1cc(F)ccc1Oc1nncnc1N1CC2(CCN(C(=O)[C@@H]3NC[C@@H](C)[C@H]3C)CC2)C1)C(C)C [Example 93]
10 | 6.1 nM | 153 nM | CCN(C(=O)c1cc(F)ccc1Oc1nncnc1N1CC2(CCN(C(=O)[C@@H]3CC(CC#N)CN3)CC2)C1)C(C)C (stereo partly shown) [Example 61]
11 | 4.8 nM | 170 nM | CC(C)n1ncnc1-c1cc(F)ccc1Oc1cncnc1N1CC2(CCN(C(=O)[C@@H]3C[C@@H](F)CN3)CC2)C1 [Example 43]
12 | 4.4 nM | 1.5 nM | O=C([C@H]1NC[C@@H]2CCC[C@@H]21)N1CCC2(CC1)CN(c1ncnnc1Oc1ccc(F)cc1-c1cccnc1C1CC1)C2 [Example 103]
13 | 11.4 nM | 144 nM | CCN(C(=O)c1cc(F)ccc1Oc1cncnc1N1CC2(CCN(C(=O)[C@@H]3C[C@@H](c4ccccc4)CN3)CC2)C1)C(C)C [Example 48]
14 | 7.5 nM | 220 nM | CCN(C(=O)c1cc(F)ccc1Oc1cncnc1N1CC2(CCN(C(=O)[C@H]3NCC[C@H]3O)CC2)C1)C(C)C [Example 7]
15 | 8 nM | 18.8 nM | CCN(C(=O)c1cc(F)ccc1Oc1nncnc1N1CC2(CCN(C(=O)[C@H]3NC[C@H](C)[C@@H]3C)CC2)C1)C(C)C [Example 92]
16 | 4.7 nM | 33.8 nM | CCN(C(=O)c1cc(F)ccc1Oc1cncnc1N1CC2(CCN(C(=O)[C@@H]3C[C@@H]4C[C@@H]4N3)CC2)C1)C(C)C [Example 30]
17 | 4.3 nM | 582 nM | CCN(C(=O)c1cc(F)ccc1Oc1cncnc1N1CC2(CCN(C(=O)[C@H]3NCc4[nH]ncc43)CC2)C1)C(C)C [Example 54]
18 | 10.2 nM | 647 nM | CCN(C(=O)c1cc(F)ccc1Oc1cncnc1N1CC2(CCN(C(=O)[C@@H]3COCCN3)CC2)C1)C(C)C [Example 26]

Row | IC50 (Menin-MLL1) | IC50 (MV-4-11 cells) | SMILES
19 | 2.4 nM | 2.4 nM | COc1ccc(-c2cc(F)ccc2Oc2nncnc2N2CC3(CCN(C(=O)[C@H]4NC[C@@H]5CCC[C@@H]54)CC3)C2)c(C2CC2)n1 [Example 107]
20 | 25.3 nM | 317 nM | CCN(C(=O)c1cc(C#N)ccc1Oc1cncnc1N1CC2(CCN(C(=O)[C@@H]3C[C@@H](F)CN3)CC2)C1)C(C)C [Example 17]
21 | 5.4 nM | 26.2 nM | CCN(C(=O)c1cc(F)ccc1Oc1cncnc1N1CC2(CCN(C(=O)[C@H]3NCC[C@H]3C)CC2)C1)C(C)C [Example 40]
22 | 5.8 nM | 40.6 nM | CC(C)n1ncc(Cl)c1-c1cc(F)ccc1Oc1nncnc1N1CC2(CCN(C(=O)[C@@H]3C[C@@H](F)CN3)CC2)C1 [Example 75]
23 | 7.3 nM | 248 nM | CCN(C(=O)c1cc(F)ccc1Oc1nnc(Cl)nc1N1CC2(CCN(C(=O)[C@H]3NC[C@@H]4C[C@@H]43)CC2)C1)C(C)C [Example 91]
24 | 24 nM | 1010 nM | CCN(C(=O)c1cc(F)ccc1Oc1nncnc1N1CC2(CCN(C(=O)[C@@H]3NCC[C@H]3CF)CC2)C1)C(C)C [Example 89]
25 | 5.4 nM | 333 nM | CCN(C(=O)c1cc(F)ccc1Oc1nncnc1N1CC2(CCN(C(=O)[C@H]3NC[C@H]4CC(F)(F)C[C@H]43)CC2)C1)C(C)C (single isomer, unassigned) [Example 98a]
26 | 11 nM | 308 nM | CCN(C(=O)c1cc(F)ccc1Oc1nncnc1N1CC2(CCN(C(=O)[C@@H]3NCCC3(C)C)CC2)C1)C(C)C [Example 66]
27 | 6.3 nM | 128 nM | CCN(C(=O)c1cc(F)ccc1Oc1cncnc1N1CC2(CCN(C(=O)[C@@H]3C[C@]4(CO)CC4N3)CC2)C1)C(C)C (stereo partly shown) [Example 11]
28 | 2.7 nM | 6.9 nM | CCN(C(=O)c1cc(F)ccc1Oc1nncnc1N1CC2(CCN(C(=O)[C@H]3NCC[C@@H]3C3CC3)CC2)C1)C(C)C [Example 100a]
29 | 11.7 nM | 284 nM | CCN(C(=O)c1cc(F)ccc1Oc1nncnc1N1CC2(CCN(C(=O)[C@@H]3NCC[C@H]3C3CC3)CC2)C1)C(C)C [Example 100b]
30 | 8.3 nM | 238 nM | CCN(C(=O)c1cc(F)ccc1Oc1cncnc1N1CC2(CCN(C(=O)[C@@H]3C[C@@H](OC(F)F)CN3)CC2)C1)C(C)C [Example 10]
31 | 4.7 nM | 68.2 nM | CCN(C(=O)c1cc(F)ccc1Oc1cncnc1N1CC2(CCN(C(=O)[C@@H]3C[C@](F)(CF)CN3)CC2)C1)C(C)C [Example 12]
32 | 2 nM | 9.4 nM | O=C([C@H]1NC[C@@H]2CCC[C@@H]21)N1CCC2(CC1)CN(c1ncnnc1Oc1ccc(F)cc1-c1ccc(=O)[nH]c1C1CC1)C2 [Example 106]
33 | 10.1 nM | 267 nM | CCN(C(=O)c1cc(F)ccc1Oc1cncnc1N1CC2(CCN(C(=O)[C@@H]3C[C@@H](F)CN3)CC2)C1)C1CC1 [Example 20]
34 | 7 nM | 440 nM | CCN(C(=O)c1cc(F)ccc1Oc1cncnc1N1CC2(CCN(C(=O)[C@@H]3C[C@@H](O)CN3)CC2)C1)C(C)C [Example 5]
35 | 7 nM | 271 nM | CCN(C(=O)c1cc(F)ccc1Oc1cncnc1N1CC2(CCN(C(=O)[C@@]3(C)CCCN3)CC2)C1)C(C)C [Example 29]
